From publication PMC5974041, “Functional Studies of Sex Pheromone Receptors in Asian Corn Borer Ostrinia furnacalis” (Frontiers in Physiology, 2018)

What was measured:
Assay in all cases: two-electrode voltage clamp, Xenopus oocytes
Type in all cases: cell-based
Conditions in all cases: pH 7.6 Ringer's buffer, -80 mV, co-expressed OfurOrco, agonist
[1] = biological target: T1, OfurOR5b (Ostrinia furnacalis, UniProt M4NPQ0)
T1 construct: gene OR5b; full-length ORF from male antennal cDNA, untagged, in PT7TS; cRNA co-injected 1:1 with OfurOrco in Xenopus oocytes; with Odorant receptor co-receptor (Orco)
T1 sequence (M4NPQ0 1-424): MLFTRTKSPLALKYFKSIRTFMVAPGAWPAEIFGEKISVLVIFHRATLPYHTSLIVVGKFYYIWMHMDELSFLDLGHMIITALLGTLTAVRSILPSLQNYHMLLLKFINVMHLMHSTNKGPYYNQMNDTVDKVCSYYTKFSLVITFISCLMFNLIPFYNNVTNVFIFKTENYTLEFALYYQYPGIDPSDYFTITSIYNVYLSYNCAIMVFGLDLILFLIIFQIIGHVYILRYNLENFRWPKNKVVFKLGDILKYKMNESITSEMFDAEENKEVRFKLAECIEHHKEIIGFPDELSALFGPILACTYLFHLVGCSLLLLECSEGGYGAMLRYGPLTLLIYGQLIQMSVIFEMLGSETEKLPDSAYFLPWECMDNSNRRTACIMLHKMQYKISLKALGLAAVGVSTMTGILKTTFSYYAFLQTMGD
T1 sequence (A0A0E4B591 1-474 partner): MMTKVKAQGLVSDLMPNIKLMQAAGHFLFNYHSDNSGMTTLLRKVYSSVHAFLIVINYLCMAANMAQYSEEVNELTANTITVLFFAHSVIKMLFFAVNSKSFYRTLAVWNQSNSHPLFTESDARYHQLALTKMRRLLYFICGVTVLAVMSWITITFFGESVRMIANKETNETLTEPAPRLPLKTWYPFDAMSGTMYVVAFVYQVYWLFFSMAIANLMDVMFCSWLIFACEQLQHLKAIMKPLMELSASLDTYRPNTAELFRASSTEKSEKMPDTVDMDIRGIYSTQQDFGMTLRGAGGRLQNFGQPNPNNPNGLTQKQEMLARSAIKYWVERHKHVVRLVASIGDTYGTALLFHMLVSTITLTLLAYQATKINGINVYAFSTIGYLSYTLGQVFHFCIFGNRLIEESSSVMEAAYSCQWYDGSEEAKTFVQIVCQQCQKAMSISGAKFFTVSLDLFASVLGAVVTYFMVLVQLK

[2] = biological target: T2, OfurOR4 (Ostrinia furnacalis, UniProt A0A0E3VLP9)
T2 construct: gene OR4; full-length ORF from male antennal cDNA, untagged, in PT7TS; cRNA co-injected 1:1 with OfurOrco in Xenopus oocytes; naming of Yang et al. 2015 (group OR4 = OnubOR3 of Wanner/Leary); with Odorant receptor co-receptor (Orco)
T2 sequence (A0A0E3VLP9 1-422): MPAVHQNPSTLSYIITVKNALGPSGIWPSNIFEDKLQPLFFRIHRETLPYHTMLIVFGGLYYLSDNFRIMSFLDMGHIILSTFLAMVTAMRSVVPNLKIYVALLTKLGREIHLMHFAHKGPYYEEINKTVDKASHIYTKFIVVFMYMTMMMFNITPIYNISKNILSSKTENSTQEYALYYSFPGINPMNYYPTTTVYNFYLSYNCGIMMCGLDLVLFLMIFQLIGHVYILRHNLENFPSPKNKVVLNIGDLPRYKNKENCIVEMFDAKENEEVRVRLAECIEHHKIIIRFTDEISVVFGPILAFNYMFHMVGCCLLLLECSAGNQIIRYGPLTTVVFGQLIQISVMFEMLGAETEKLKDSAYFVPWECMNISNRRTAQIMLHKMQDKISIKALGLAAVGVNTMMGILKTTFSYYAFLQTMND
T2 sequence (A0A0E4B591 1-474 partner): T1 sequence (A0A0E4B591 1-474 partner)

[3] = biological target: T3, OfurOR8 (Ostrinia furnacalis, UniProt A0A0E4B5G7)
T3 construct: gene OR8; full-length ORF from male antennal cDNA, untagged, in PT7TS; cRNA co-injected 1:1 with OfurOrco in Xenopus oocytes; naming of Yang et al. 2015; with Odorant receptor co-receptor (Orco)
T3 sequence (A0A0E4B5G7 1-437): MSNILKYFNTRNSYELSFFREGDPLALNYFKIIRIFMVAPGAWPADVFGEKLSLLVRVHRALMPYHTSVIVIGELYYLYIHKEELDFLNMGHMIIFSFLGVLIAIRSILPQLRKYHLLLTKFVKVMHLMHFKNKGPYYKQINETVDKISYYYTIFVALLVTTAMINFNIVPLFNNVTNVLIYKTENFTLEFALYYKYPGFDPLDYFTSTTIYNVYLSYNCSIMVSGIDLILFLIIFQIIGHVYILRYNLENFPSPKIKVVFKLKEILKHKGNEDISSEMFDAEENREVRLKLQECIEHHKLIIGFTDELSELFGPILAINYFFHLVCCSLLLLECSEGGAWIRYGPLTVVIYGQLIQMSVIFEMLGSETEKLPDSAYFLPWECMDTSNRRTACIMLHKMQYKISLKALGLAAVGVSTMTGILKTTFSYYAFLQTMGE
T3 sequence (A0A0E4B591 1-474 partner): T1 sequence (A0A0E4B591 1-474 partner)

[4] = biological target: T4, OfurOR6 (Ostrinia furnacalis, UniProt M4NL06)
T4 construct: gene OR6; full-length ORF from male antennal cDNA, untagged, in PT7TS; cRNA co-injected 1:1 with OfurOrco in Xenopus oocytes; naming of Yang et al. 2015; with Odorant receptor co-receptor (Orco)
T4 sequence (M4NL06 1-421): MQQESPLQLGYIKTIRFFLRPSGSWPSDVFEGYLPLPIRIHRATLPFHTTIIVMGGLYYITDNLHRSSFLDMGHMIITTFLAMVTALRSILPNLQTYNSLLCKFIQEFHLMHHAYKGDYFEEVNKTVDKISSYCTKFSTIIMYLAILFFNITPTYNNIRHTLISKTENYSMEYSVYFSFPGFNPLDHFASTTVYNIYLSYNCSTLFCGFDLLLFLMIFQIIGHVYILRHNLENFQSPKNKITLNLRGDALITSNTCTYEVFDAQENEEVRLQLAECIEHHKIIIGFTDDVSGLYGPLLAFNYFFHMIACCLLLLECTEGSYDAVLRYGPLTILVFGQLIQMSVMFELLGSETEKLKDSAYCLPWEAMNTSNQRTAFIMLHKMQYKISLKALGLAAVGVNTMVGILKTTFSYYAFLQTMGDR
T4 sequence (A0A0E4B591 1-474 partner): T1 sequence (A0A0E4B591 1-474 partner)

[5] = biological target: T5, OfurOR7 (Ostrinia furnacalis, UniProt M4NKX7)
T5 construct: gene OR7; full-length ORF from male antennal cDNA, untagged, in PT7TS; cRNA co-injected 1:1 with OfurOrco in Xenopus oocytes; naming of Yang et al. 2015; with Odorant receptor co-receptor (Orco)
T5 sequence (M4NKX7 1-428): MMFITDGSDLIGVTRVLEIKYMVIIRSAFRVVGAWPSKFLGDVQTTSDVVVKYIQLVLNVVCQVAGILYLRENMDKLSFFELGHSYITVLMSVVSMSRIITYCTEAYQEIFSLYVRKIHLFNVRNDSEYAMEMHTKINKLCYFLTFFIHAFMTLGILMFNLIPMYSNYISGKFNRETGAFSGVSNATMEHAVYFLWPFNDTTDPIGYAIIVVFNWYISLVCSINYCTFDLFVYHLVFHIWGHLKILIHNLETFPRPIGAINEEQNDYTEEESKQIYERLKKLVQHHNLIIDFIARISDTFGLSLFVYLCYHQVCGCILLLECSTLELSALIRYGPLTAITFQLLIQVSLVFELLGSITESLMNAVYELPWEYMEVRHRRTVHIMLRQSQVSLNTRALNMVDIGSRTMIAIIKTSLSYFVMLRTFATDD
T5 sequence (A0A0E4B591 1-474 partner): T1 sequence (A0A0E4B591 1-474 partner)

current at 100 μM [3]	current at 100 μM [4]	current at 100 μM ([2]; standard order of application (response depends on order))	current at 100 μM [5]	SMILES	current at 100 μM [1]	current at 100 μM [2]
144.6 ± 28.3 nA				CC/C=C/CCCCCCCCCCOC(C)=O [E11-14:OAc, (E)-11-tetradecenyl acetate]	OfurOR5b broadly tuned to Z9-14:OAc, E11-14:OAc, Z11-14:OAc, E12-14:OAc, and Z12-14:OAc	inhibited the response of Z9-14:OAc, Z11-14:OAc, and E11-14:OAc
	140.7 ± 6.0 nA	727.9 ± 120.4 nA		C/C=C/CCCCCCCCCCCOC(C)=O [E12-14:OAc, E-12-tetradecenyl acetate]	OfurOR5b broadly tuned to Z9-14:OAc, E11-14:OAc, Z11-14:OAc, E12-14:OAc, and Z12-14:OAc	
8.5 ± 5.2 nA			212.2 ± 46.3 nA	CCCC/C=C\CCCCCCCCOC(C)=O [Z9-14:OAc, (Z)-9-tetradecenyl acetate]	OfurOR5b broadly tuned to Z9-14:OAc, E11-14:OAc, Z11-14:OAc, E12-14:OAc, and Z12-14:OAc	inhibited the response of Z9-14:OAc, Z11-14:OAc, and E11-14:OAc
76.8 ± 14.1 nA				CC/C=C\CCCCCCCCCCOC(C)=O [Z11-14:OAc, (Z)-11-tetradecenyl acetate]	OfurOR5b broadly tuned to Z9-14:OAc, E11-14:OAc, Z11-14:OAc, E12-14:OAc, and Z12-14:OAc	inhibited the response of Z9-14:OAc, Z11-14:OAc, and E11-14:OAc
				C/C=C\CCCCCCCCCCCOC(C)=O [Z12-14:OAc, (Z)-12-tetradecenyl acetate]	OfurOR5b broadly tuned to Z9-14:OAc, E11-14:OAc, Z11-14:OAc, E12-14:OAc, and Z12-14:OAc	1876.8 ± 165 nA
